According to patent publication US7053041B1, “Methods and compositions useful for inhibition of αvβ5mediated angiogenesis” (The Scripps Research Institute, priority 1996, dated 2006):
Entries after “also recorded” stand apart in the source; their conditions may differ. [ ]: non-standard residue; d: D form.

B1: LM609: mouse monoclonal antibody, anti-αvβ3 (antibody, V domains shown)
VH: EVQLEESGGGLVKPGGSLKLSCAASGFAFSSYDMSWVRQIPEKRLEWVAKVSSGGGSTYYLDTVQGRFTISRDNAKNTLYLQMSSLNSEDTAMYYCARHNYGSFAYWGQGTLVTVSA
VL: ELVMTQTPATLSVTPGDSVSLSCRASQSISNHLHWYQQKSHESPRLLIKYASQSISGIPSRFSGSGSGTDFTLSINSVETEDFGMYFCQQSNSWPHTFGGGTKLEIKRA

Columns and labels:
[1] = test system: VEGF-induced angiogenesis; assay: in vivo rabbit eye model assay, VEGF-induced corneal angiogenesis
Method: Hydron polymer pellets containing growth factor and monoclonal antibodies (mAbs) were prepared as described by D'Amato, et al., Proc. Natl. Acad. Sci., 91:4082–4085 (1994). […] In addition, hydron pellets were prepared which contained either 40 μg of the mAb P1F6 (anti-αvβ5) or the control antibody, LM609 (anti-αvβ3), in PBS.
All of the mAbs tested were purified from ascites fluid using Protein-A Sepharose CL-4B affinity column chromatography according to well-known methods. The eluted immunoglobulin was then dialyzed against PBS and treated with Detoxi-gel (Pierce Chemicals, Rockford, Ill.) to remove endotoxin. […] Monoclonal antibodies were therefore tested for the presence of endotoxin with the Chromogenic Limulus Amebocyte Lysate Assay (BioWhittaker, Walkersville, Md.) and only those mAbs without detectable endotoxin were used in the rabbit eye model assay.
Approximately 12 μl of casting material was placed into each peg and polymerized overnight in a sterile hood. Pellets were then sterilized by ultraviolet irradiation.
A series of eight animals were used for paired eye experiments where each animal received a Hydron implant containing a preselected cytokine with a preselected antibody or control immunoglobulin. Specifically, for each rabbit, one cornea was surgically implanted with a Hydron pellet containing either bFGF or VEGF in conjunction with mAb P1F6 and the other cornea was treated with either bFGF or VEGF in conjunction with MAb LM609. […]
The effects of specific mAb integrin immunoreactivity on the above cytokine-induced angiogenesis is also quantified as shown in FIGS. 2A and 2B. […] Photographs were recorded on Kodak Ektachrome 64T slide film and images were converted for computer-assisted quantitation using Biorad's Molecular Analyst 1.1 software after acquisition through a Model GS670 imaging densitometer. […]
Each experiment consisted of eight rabbits in which one eye received a pellet comprising 100 nanograms (ng) bFGF and the other eye received a pellet comprising 1 microgram (ug) VEGF. […] After 7 days, the cornea were evaluated as described above.

[2] = test system: M21L human melanoma tumors; assay: chimeric mouse:human (SCID) assay, M21L melanoma tumor growth; type: in vivo; conditions: for tumor volume (FIG. 9): 250 μg peptide intraperitoneally 3 times per week over 3 weeks; for tumor volume (FIG. 21): M21-L tumors, peptides compared with mAB LM609
Method: An in vivo chimeric mouse:human model was generated by replacing a portion of skin from a SCID mouse with human neonatal foreskin. The in vivo chimeric mouse:human model was prepared essentially as described in Yan, et al., J. Clin. Invest., 91:986–996 (1993). Briefly, a 2 cm^2 square area of skin was surgically removed from a SCID mouse (6–8 weeks of age) and replaced with a human foreskin. The mouse was anesthetized and the hair removed from a 5 cm^2 area on each side of the lateral abdominal region by shaving. Two circular graft beds of 2 cm^2 were prepared by removing the full thickness of skin down to the fascia. Full thickness human skin grafts of the same size derived from human neonatal foreskin were placed onto the wound beds and sutured into place. The graft was covered with a Band-Aid which was sutured to the skin. Micropore cloth tape was also applied to cover the wound.
After the skin graft was established, the human foreskin was inoculated with melanoma cells. The M21L human melanoma cell line was used to form the solid human tumors on the human skin grafts on the SCID mice. A single cell suspension of 2×10^6 M21L was injected intradermally into the human skin graft. The mice were then observed for 2 to 4 weeks to allow growth of measurable human tumors.
After a measurable tumor was established, either 250 μg of the peptide (in a volume of 100 μl) having SEQ ID NO 9 (cyclic RGD-containing peptide Arg-Gly-Asp-D-Phe-Asn-NMeVAL) or a control peptide, cyclo Arg-βAla-Asp-D-Phe-Val, were injected intraperitoneally into the mouse 3 times per week over 3 weeks. At the end of this time, the tumor was excised and analyzed by weight and histology.
In additional assays with the SCID mice model having measurable M21-L tumors, in a preliminary analysis, a dose response curve was performed for peptides 69601 (control) and 85189 (test) injected over a concentration range of 10 to 250 μg/ml. The mean volume and weight of resected tumors following treatment were determined with the results respectively shown in FIGS. 22A and 22B.
For analyzing peptide 85189 treatment effectiveness over a time course, two treatment regimens were evaluated in the same SCID tumor model. In one assay, treatment with either peptide 85189 or 69601 was initiated on day 6, with day 0 being the day of M21-L tumor injection of 3×10^6 cells subcutaneously into mouse skin, with intraperitoneal injections of 250 μg/ml peptide 85189 or control 69601 every other day until day 29. The other assay was identically performed with the exception that treatment was initiated on day 20. At the end of the assays, the tumors were resected and the mean tumor volume in mm^3 was determined. The data was plotted as this value +/− the standard error of the mean.

| Molecule | corneal blood vessel growth at 7 days, VEGF-stimulated eyes ([1]; peptide s.q. 50 ug per kg initial, 20 ug/kg daily, 1 ug VEGF pellet) | tumor volume (FIG. 9) [2] | tumor volume (FIG. 21) [2] | inhibition of corneal blood vessel growth ([1]; peptide s.q. 50 ug per kg initial, 20 ug/kg daily, 7 days, 1 ug VEGF pellet) | inhibition of tumor growth over a time course (mean tumor volume) ([2]; 250 μg/ml intraperitoneally every other day from day 6 or day 20 until day 29) | inhibition of M21-L tumor growth, dose response (volume and weight) ([2]; 10 to 250 μg/ml, preliminary analysis) | most effective dosage ([2]; range tested 10 to 250 μg/ml) | inhibition of VEGF-induced corneal angiogenesis ([1]; Hydron pellet with 750 ng VEGF and 40 μg mAb, postoperative day 10) |
| --- | --- | --- | --- | --- | --- | --- | --- | --- |
| cyclo(Arg-Ala-Asp-D-Phe-Val) (cyclo(RAD[dF]V); SMILES CC(C)[C@@H]1NC(=O)[C@@H](Cc2ccccc2)NC(=O)[C@H](CC(=O)O)NC(=O)[C@H](C)NC(=O)[C@H](CCCNC(=N)N)NC1=O) [peptide 69601, reference compound] | substantial corneal blood vessel growth | greater than 300 mm^3 | approximately 360 mm^3 |  |  |  |  |  |
| cyclo(Arg-Gly-Asp-D-Phe-NMeVal) [peptide 85189] |  | approximately 25 mm^3 | below 25 mm^3 | ~100% | inhibited tumor growth | effective at inhibiting M21-L tumor growth | 250 µg/mL |  |
| B1 |  |  | approximately 60 mm^3 |  |  |  |  | not effective at inhibiting VEGF-induced angiogenesis; also recorded: minimal effect on VEGF-induced angiogenesis |
